Assay [1] concerns cell line with introduced FGFR3 V555M mutation. The arrangement: method as in PMID 26097890. Particulars: cell line originally responding to both drugs; cited from earlier work.
The test system of assay [2] is JHUEM-2 cancer cell line, FGFR2 mutation corresponding to N540K. The arrangement: method as in PMID 23908597. The conditions noted are these: cited from earlier work.
In assay [3] the test system is NIH3T3 cells expressing FGFR3 K650E. The conditions noted are these: K650E NIH3T3 cells vs FGFR3TACC3-fusion cells, in words. Here is the method:
(§1) For the cell viability assay in the presence of FGFR inhibitors, NIH3T3 cells transfected with the stated FGFR3 variants were plated in 96-well plates, 1000 cells per well. Twenty-four hours later the cells were treated with various concentrations of kinase inhibitor. Forty-eight hours later, fresh inhibitor was added and the cells incubated for 72 hours. Cell viability was measured through the addition of CellTiter-Glo (Promega) and luminenscence measured with a standard luminometer plate reader. Data were normalised and fitted to a log(inhibitor) vs. response curve (three parameters) with GraphPad Prism.

Assay [4] relates to NIH3T3 cells expressing FGFR3TACC3-fusion (WT KD). The conditions noted are these: AZD4547 compared with JNJ42756493. Here is the method: as §1
The subject of assay [5] is NIH3T3 cells expressing FGFR3 N540K. The conditions noted are these: N540K NIH3T3 cells vs FGFR3TACC3-fusion cells, in words. Here is the method: as §1
Assay [6] has as its system cancer cell lines with the FGFR3 S249C substitution. The conditions noted are these: some cancer cell lines with FGFR3 S249C; cited from earlier work.

Data on two compounds can be found in publication PMC5029699, “Landscape of activating cancer mutations in FGFR kinases and their differential responses to inhibitors in clinical use” (Oncotarget, 2016).

As for `CCN(CC)CCCCNc1ncc2cc(-c3cc(OC)cc(OC)c3)c(NC(=O)NC(C)(C)C)nc2n1` [PD173074], the “drug effect following introduction of FGFR3 V555M mutation” value in assay [1] is “loss of efficacy”. In assay [2], the “drug response due to mutation corresponding to N540K in FGFR2” value is on record as “reduced sensitivity”.

On to AZD4547, for which the “effect of variant on inhibitor efficacy in cells” value in assay [3] and in assay [5] was “reduce efficacy” in each case. For the same compound, in assay [4], the “difference between AZD4547 and JNJ42756493 cellular IC50s” value is recorded as 2-3 fold. Also, in assay [6], the “viability and proliferation of cancer cell lines” value is recorded as “compromised”.
